Test results as given in PubChem BioAssay (NCI).
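Each compound was tested at five concentrations against cells in 96-well plates for 48 hours. GI50 is the concentration that inhibits growth by half. At the TGI there is no net growth.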

Key:
Assay in all cases: inhibition of tumour cell growth, NCI panel, 48 h
[1] = system: 786-0 renal
[2] = system: A498 renal
[3] = system: A549 NSCLC
[4] = system: ACHN renal
[5] = system: BT-549 breast
[6] = system: CAKI-1 renal
[7] = system: CCRF-CEM leukemia
[8] = system: COLO 205 colon
[9] = system: DU-145 prostate
[10] = system: EKVX NSCLC
[11] = system: HCC-2998 colon
[12] = system: HCT-116 colon
[13] = system: HCT-15 colon
[14] = system: HL-60(TB) leukemia
[15] = system: HOP-62 NSCLC
[16] = system: HOP-92 NSCLC
[17] = system: HT29 colon
[18] = system: IGROV1 ovarian
[19] = system: K-562 leukemia
[20] = system: KM12 colon
[21] = system: LOX IMVI melanoma
[22] = system: M14 melanoma
[23] = system: MALME-3M melanoma
[24] = system: MCF7 breast
[25] = system: MDA-MB-231 breast
[26] = system: MDA-MB-435
[27] = system: MOLT-4 leukemia
[28] = system: NCI-H226 lung
[29] = system: NCI-H460 lung
[30] = system: NCI-H522 lung
[31] = system: NCI/ADR-RES ovarian
[32] = system: OVCAR-3 ovarian
[33] = system: OVCAR-4 ovarian
[34] = system: OVCAR-5 ovarian
[35] = system: OVCAR-8 ovarian
[36] = system: PC-3 prostate
[37] = system: RPMI-8226 leukemia
[38] = system: RXF 393 renal
[39] = system: SF-268 CNS
[40] = system: SF-295 CNS
[41] = system: SF-539 CNS
[42] = system: SK-MEL-2 melanoma
[43] = system: SK-MEL-28 melanoma
[44] = system: SK-MEL-5 melanoma
[45] = system: SN12C renal
[46] = system: SNB-19 CNS
[47] = system: SNB-75 CNS
[48] = system: SR leukemia
[49] = system: SW-620 colon
[50] = system: T-47D breast
[51] = system: U251 CNS
[52] = system: UACC-257 melanoma
[53] = system: UACC-62 melanoma
[54] = system: UO-31 renal
[55] = system: HS 578T breast
[56] = system: NCI-H23 lung
[57] = system: SK-OV-3 ovarian
[58] = system: TK-10 renal

## COc1cc(-c2ccc3ncnc(NCc4ccccc4)c3c2)cnc1OC
[1]
  GI50: 2990 nM
  TGI: > 100 µM
[2]
  GI50: 1780 nM
  TGI: 6.64 µM
[3]
  GI50: 3590 nM
  TGI: > 100 µM
[4]
  GI50: 2920 nM
  TGI: > 100 µM
[5]
  GI50: 3250 nM
  TGI: > 100 µM
[6]
  GI50: 2020 nM
  TGI: > 100 µM
[7]
  GI50: 4 µM
  TGI: > 100 µM
[8]
  GI50: 7.48 µM
  TGI: > 100 µM
[9]
  GI50: 3430 nM
  TGI: > 100 µM
[10]
  GI50: 1890 nM
  TGI: > 100 µM
[11]
  GI50: 14.4 µM
  TGI: > 100 µM
[12]
  GI50: 13.1 µM
  TGI: > 100 µM
[13]
  GI50: 5.68 µM
  TGI: > 100 µM
[14]
  GI50: 6.42 µM
  TGI: > 100 µM
[15]
  GI50: 6.88 µM
  TGI: > 100 µM
[16]
  GI50: 544 nM
  TGI: 4.82 µM
[17]
  GI50: 5.02 µM
  TGI: > 100000 nM
[18]
  GI50: 1030 nM
  TGI: 3.52 µM
[19]
  GI50: 51 µM
  TGI: > 100 µM
[20]
  GI50: 50.7 µM
  TGI: > 100 µM
[21]
  GI50: 4190 nM
  TGI: 27.4 µM
[22]
  GI50: 16.4 µM
  TGI: > 100 µM
[23]
  GI50: 9.59 µM
  TGI: > 100 µM
[24]
  GI50: 658 nM
  TGI: 19 µM
[25]
  GI50: 4.72 µM
  TGI: > 100000 nM
[26]
  GI50: 56 µM
  TGI: > 100 µM
[27]
  GI50: 3800 nM
  TGI: > 100 µM
[28]
  GI50: 4.68 µM
  TGI: > 100 µM
[29]
  GI50: 5.83 µM
  TGI: > 100 µM
[30]
  GI50: 4.65 µM
  TGI: > 100 µM
[31]
  GI50: 7.97 µM
  TGI: > 100 µM
[32]
  GI50: 3940 nM
  TGI: > 100 µM
[33]
  GI50: 62.7 µM
  TGI: > 100 µM
[34]
  GI50: 2970 nM
  TGI: > 100 µM
[35]
  GI50: 9.42 µM
  TGI: > 100 µM
[36]
  GI50: 2790 nM
  TGI: > 100 µM
[37]
  GI50: 4.38 µM
  TGI: > 100 µM
[38]
  GI50: 1330 nM
  TGI: 6.1 µM
[39]
  GI50: 6.43 µM
  TGI: > 100 µM
[40]
  GI50: 3830 nM
  TGI: > 100 µM
[41]
  GI50: 4.8 µM
  TGI: > 100 µM
[42]
  GI50: 19.5 µM
  TGI: > 100 µM
[43]
  GI50: 9.68 µM
  TGI: > 100 µM
[44]
  GI50: 10.7 µM
  TGI: > 100 µM
[45]
  GI50: 3740 nM
  TGI: > 100 µM
[46]
  GI50: 9.33 µM
  TGI: > 100 µM
[47]
  GI50: 655 nM
  TGI: 6.87 µM
[48]
  GI50: 7.24 µM
  TGI: > 100 µM
[49]
  GI50: 34.2 µM
  TGI: > 100 µM
[50]
  GI50: 192 nM
  TGI: 2.82 µM
[51]
  GI50: 77.3 µM
  TGI: > 100 µM
[52]
  GI50: 69.8 µM
  TGI: > 100 µM
[53]
  GI50: 2970 nM
  TGI: > 100 µM
[54]
  GI50: 1450 nM
  TGI: > 100 µM

## Cc1ccc(C(=O)Nc2ccc(CNCCN3CCNCC3)c(C(F)(F)F)c2)cc1C#Cc1cnc2cccnn12
[1]
  GI50: 2170 nM
  TGI: 3.89 µM
[2]
  GI50: 1800 nM
  TGI: 3.36 µM
[3]
  GI50: 1920 nM
  TGI: 3.73 µM
[4]
  GI50: 1820 nM
  TGI: 3.27 µM
[5]
  GI50: 2170 nM
  TGI: 3.91 µM
[6]
  GI50: 1790 nM
  TGI: 3.37 µM
[8]
  GI50: 1.93 µM
  TGI: 3.87 µM
[9]
  GI50: 1890 nM
  TGI: 3.39 µM
[10]
  GI50: 2120 nM
  TGI: 4.13 µM
[11]
  GI50: 1.97 µM
  TGI: 3.62 µM
[13]
  GI50: 1.87 µM
  TGI: 3.43 µM
[15]
  GI50: 1.86 µM
  TGI: 3.63 µM
[16]
  GI50: 1450 nM
  TGI: 3.25 µM
[55]
  GI50: 2070 nM
  TGI: 5.25 µM
[17]
  GI50: 1.39 µM
  TGI: 2780 nM
[18]
  GI50: 1850 nM
  TGI: 3.49 µM
[20]
  GI50: 1.78 µM
  TGI: 3.35 µM
[21]
  GI50: 1730 nM
  TGI: 3.18 µM
[23]
  GI50: 1.71 µM
  TGI: 3.39 µM
[24]
  GI50: 1780 nM
  TGI: 3.4 µM
[25]
  GI50: 1.41 µM
  TGI: 2970 nM
[26]
  GI50: 1.77 µM
  TGI: 3.3 µM
[27]
  GI50: 1680 nM
  TGI: 4.47 µM
[28]
  GI50: 1.84 µM
  TGI: 3.74 µM
[56]
  GI50: 1850 nM
  TGI: 3.45 µM
[29]
  GI50: 1.99 µM
  TGI: 3.81 µM
[30]
  GI50: 1.78 µM
  TGI: 3.48 µM
[31]
  GI50: 7.54 µM
  TGI: 26.7 µM
[32]
  GI50: 1970 nM
  TGI: 3.61 µM
[33]
  GI50: 2.04 µM
  TGI: 4.26 µM
[34]
  GI50: 1790 nM
  TGI: 3.31 µM
[35]
  GI50: 2.07 µM
  TGI: 4.01 µM
[36]
  GI50: 1860 nM
  TGI: 3.4 µM
[37]
  GI50: 2.18 µM
  TGI: 4.91 µM
[38]
  GI50: 1800 nM
  TGI: 3.24 µM
[39]
  GI50: 2.14 µM
  TGI: 4.11 µM
[40]
  GI50: 1780 nM
  TGI: 3.31 µM
[41]
  GI50: 1.63 µM
  TGI: 3.06 µM
[42]
  GI50: 1.81 µM
  TGI: 3.68 µM
[43]
  GI50: 1.73 µM
  TGI: 3.19 µM
[44]
  GI50: 1.76 µM
  TGI: 3.25 µM
[57]
  GI50: 2130 nM
  TGI: 3.95 µM
[45]
  GI50: 1770 nM
  TGI: 3.38 µM
[46]
  GI50: 1.96 µM
  TGI: 3.54 µM
[47]
  GI50: 714 nM
  TGI: 3.53 µM
[48]
  GI50: 2.47 µM
  TGI: > 100 µM
[49]
  GI50: 1.94 µM
  TGI: 3.65 µM
[50]
  GI50: 1940 nM
  TGI: 4.09 µM
[58]
  GI50: 1970 nM
  TGI: 3.58 µM
[51]
  GI50: 1.72 µM
  TGI: 3.21 µM
[52]
  GI50: 1.93 µM
  TGI: 3.85 µM
[53]
  GI50: 1740 nM
  TGI: 3.27 µM
[54]
  GI50: 2460 nM
  TGI: 5.9 µM
